# US20260217687A1 (NeoPhore Limited, priority 2023, published 2026)
# Molecular target: T1, recombinant N-terminal MLH1 (residues 15-340) (Homo sapiens, UniProt P40692)
# T1 construct: recombinant N-terminal MLH1 (residues 15-340)
# T1 sequence (P40692 15-340): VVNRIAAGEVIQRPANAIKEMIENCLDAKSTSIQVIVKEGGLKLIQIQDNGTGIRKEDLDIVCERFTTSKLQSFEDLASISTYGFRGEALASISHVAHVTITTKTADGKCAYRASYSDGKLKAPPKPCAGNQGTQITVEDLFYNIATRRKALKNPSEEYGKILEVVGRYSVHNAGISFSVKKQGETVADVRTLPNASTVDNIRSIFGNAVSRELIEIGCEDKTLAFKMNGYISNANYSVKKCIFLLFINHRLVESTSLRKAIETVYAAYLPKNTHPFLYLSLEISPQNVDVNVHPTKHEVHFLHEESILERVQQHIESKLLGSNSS
# Experiment: Fluorescence Polarisation Assay for MLH1
# Format: binding
# Conditions: 100 nM N-terminal MLH1, 5 nM probe compound
# Protocol: Fluorescence Polarisation Assay for MLH1
# Test compounds, as 10 mM DMSO stocks, were dispensed into a 384-well Low Flange Black Flat Bottom Polystyrene Non-binding Surface plate (Corning®, item number 3575) using a Labcyte Echo acoustic liquid handler. […] 20 μL of a 2× solution (200 nM) of recombinant N-terminal MLH1 (residues 15-340) in assay buffer (25 mM HEPES, pH 7.5, 250 mM NaCl, 10 mM MgCl2, 0.01% Triton X-100, 5 mM Dithiothreitol) was added to all wells in columns 1-23 and 20 μL assay buffer was added to all wells in column 24 using an E1-ClipTip pipette (ThermoFisher). Plates were centrifuged for 1 minute at 250 xg and were incubated at room temperature for 30 minutes prior to the addition of 20 μL of 2×(10 nM) of 5-((5-(4-((2-(2-(Benzyloxy)-4,6-dihydroxybenzoyl)isoindolin-5-yl)methyl)piperazin-1-yl)pentyl)carbamoyl)-2-(6-(dimethylamino)-3-(dimethyliminio)-3H-xanthen-9-yl)benzoate (referred to hereinafter as “probe compound”) in assay buffer (prepared from a 1 mM DMSO stock) with an E1-ClipTip pipette (ThermoFisher). The final concentration of N-terminal MLH1 was 100 nM and the final concentration of the probe compound was 5 nM. Compound plates were centrifuged for 1 minute at 250 xg for 1 minute and immediately read on a PheraStar FSX (fitted with 384-well aperture spoon and 590 675 675 FP optic module). The gain and focus were adjusted before each plate was read so that the polarisation of a no enzyme control (column 24) was equal to 35 mP. Data were normalised against the no inhibitor controls (column 23) and no enzyme controls (column 24).
row,IC50 [nM],SMILES
1,100 to 1000,"O=C(c1c(O)cc(C(F)F)cc1OCc1ccccc1)N1Cc2cccc(N[C@H]3CCOC3)c2C1 [Example 4, (S)-(2-(Benzyloxy)-4-(difluoromethyl)-6-hydroxyphenyl)(4-((tetrahydrofuran-3-yl)amino)isoindolin-2-yl)methanone]"
2,1000 to 10000,"N#Cc1cc(O)c(C(=O)N2Cc3cccc(NC4COC4)c3C2)c(OCc2ccccn2)c1 [Example 10.38, 3-Hydroxy-4-(4-(oxetan-3-ylamino)isoindoline-2-carbonyl)-5-(pyridin-2-ylmethoxy)benzonitrile]"
3,100 to 1000,"CN(C)Cc1ccc2c(c1)CN(C(=O)c1c(O)cc(C(F)F)cc1OCc1ccccc1)C2 [Example 4.51, (2-(Benzyloxy)-4-(difluoromethyl)-6-hydroxyphenyl)(5-((dimethylamino)methyl)isoindolin-2-yl)methanone]"
4,100 to 1000,"CN(C)CCOc1nc2c(c(NC3CCOC3)n1)CN(C(=O)c1c(O)cc(C(F)F)cc1OCc1ccccc1)CC2 (centres unmarked) [Example 27.17, (2-(Benzyloxy)-4-(difluoromethyl)-6-hydroxyphenyl)(2-(2-(dimethylamino)ethoxy)-4-((tetrahydrofuran-3-yl)amino)-7,8-dihydropyrido[4,3-d]pyrimidin-6(5H)-yl)methanone]"
5,100 to 1000,"COCCOc1ccc2c(c1)CN(C(=O)c1c(O)cc(C#N)cc1OCc1ccccc1)C2 [Example 10.35, 3-(Benzyloxy)-5-hydroxy-4-(5-(2-methoxyethoxy)isoindoline-2-carbonyl)benzonitrile]"
6,100 to 1000,"O=C(c1c(O)cc(C(F)F)cc1OCc1ccccc1)N1CCc2ccc(N[C@H]3CCOC3)cc21 (single isomer, unassigned) [Example 27.2b, (S)-(2-(Benzyloxy)-4-(difluoromethyl)-6-hydroxyphenyl)(6-((tetrahydrofuran-3-yl)amino)indolin-1-yl)methanone or (R)-(2-(benzyloxy)-4-(difluoromethyl)-6-hydroxyphenyl)(6-((tetrahydrofuran-3-yl)amino)indolin-1-yl)methanone]"
7,100 to 1000,"COc1cc2c(c(N[C@H]3CCOC3)c1)CN(C(=O)c1c(O)cc(C(F)F)cc1OCc1ccccc1)CC2 [Example 4.20, (S)-(2-(Benzyloxy)-4-(difluoromethyl)-6-hydroxyphenyl)(6-methoxy-8-((tetrahydrofuran-3-yl)amino)-3,4-dihydroisoquinolin-2(1H)-yl)methanone]"
8,100 to 1000,"CN(C)Cc1cc2c(c(N[C@H]3CCOC3)c1)CN(C(=O)c1c(O)cc(C(F)F)cc1OCc1ccccc1)C2 [Example 4.2, (S)-(2-(Benzyloxy)-4-(difluoromethyl)-6-hydroxyphenyl)(6-((dimethylamino)methyl)-4-((tetrahydrofuran-3-yl)amino)isoindolin-2-yl)methanone]"
9,1000 to 10000,"O=C(c1c(O)cc(C(F)F)cc1OCc1ccccc1)N1Cc2ccccc2C1 [Example 4.54, (2-(Benzyloxy)-4-(difluoromethyl)-6-hydroxyphenyl)(isoindolin-2-yl)methanone]"
10,1000 to 10000,"N#Cc1cc(O)c(C(=O)N2Cc3cccc(N[C@@H]4CCOC4)c3C2)c(OCc2ccccc2)c1 [Example 12.3, (R)-3-(Benzyloxy)-5-hydroxy-4-(4-((tetrahydrofuran-3-yl)amino)isoindoline-2-carbonyl)benzonitrile]"
11,100 to 1000,"Cn1cnc(-c2cc3c(c(N[C@H]4CCOC4)c2)CN(C(=O)c2c(O)cc(C(F)F)cc2OCc2ccccc2)CC3)c1 [Example 4.27, (S)-(2-(Benzyloxy)-4-(difluoromethyl)-6-hydroxyphenyl) (6-(1-methyl-1H-imidazol-4-yl)-8-((tetrahydrofuran-3-yl)amino)-3,4-dihydroisoquinolin-2(1H)-yl)methanone]"
12,100 to 1000,"CN1CCN(Cc2ccc3c(c2)CN(C(=O)c2c(O)cc(C(F)F)cc2OCc2ccccc2)C3)CC1 [Example 4.30, (2-(Benzyloxy)-4-(difluoromethyl)-6-hydroxyphenyl) (5-((4-methylpiperazin-1-yl)methyl)isoindolin-2-yl) methanone]"
13,1000 to 10000,"N#Cc1cc(O)c(C(=O)N2Cc3cccc(Nc4cncnc4)c3C2)c(OCc2ccccc2)c1 [Example 10.4, 3-(Benzyloxy)-5-hydroxy-4-(4-(pyrimidin-5-ylamino)isoindoline-2-carbonyl)benzonitrile]"
14,100 to 1000,"CN1CCC(Oc2cc3c(c(N[C@@H]4CCOC4)c2)CN(C(=O)c2c(O)cc(C(F)F)cc2OCc2ccccc2)C3)CC1 [Example 4.63, (R)-(2-(Benzyloxy)-4-(difluoromethyl)-6-hydroxyphenyl)(6-((1-methylpiperidin-4-yl)oxy)-4-((tetrahydrofuran-3-yl)amino)isoindolin-2-yl)methanone]"
15,100 to 1000,"CN(C)Cc1ccc2c(c1)CCN(C(=O)c1c(O)cc(C(F)F)cc1OCc1ccccc1)C2 [Example 4.43, (2-(Benzyloxy)-4-(difluoromethyl)-6-hydroxyphenyl)(6-((dimethylamino)methyl)-3,4-dihydroisoquinolin-2(1H)-yl)methanone]"
16,1000 to 10000,"O=C(c1c(O)cc(C(F)F)cc1OCc1ccccc1)N1CCc2c(NC3CCOC3)cccc21 (centres unmarked) [Example 27.24, (2-(Benzyloxy)-4-(difluoromethyl)-6-hydroxyphenyl)(4-((tetrahydrofuran-3-yl)amino)indolin-1-yl)methanone]"
17,100 to 1000,"O=C1OCCC1Nc1cccc2c1CN(C(=O)c1c(O)cc(C(F)F)cc1OCc1ccccc1)CC2 (centres unmarked) [Example 4.17, 3-((2-(2-(Benzyloxy)-4-(difluoromethyl)-6-hydroxybenzoyl)-1,2,3,4-tetrahydroisoquinolin-8-yl)amino) dihydrofuran-2(3H)-one]"
18,1000 to 10000,"N#Cc1cc(O)c(C(=O)N2Cc3cnc(N4CCOCC4)cc3C2)c(OCc2ccccc2)c1 [Example 27.8, 3-(Benzyloxy)-5-hydroxy-4-(6-morpholino-2,3-dihydro-1H-pyrrolo[3,4-c]pyridine-2-carbonyl)benzonitrile]"
19,100 to 1000,"O=C(c1c(O)cc(C(F)F)cc1OCc1ccccc1)N1CCc2ccc(Cn3ccnc3)cc2C1 [Example 4.48, (7-((1H-Imidazol-1-yl)methyl)-3,4-dihydroisoquinolin-2(1H)-yl)(2-(benzyloxy)-4-(difluoromethyl)-6-hydroxyphenyl)methanone]"
20,100 to 1000,"CNc1cc(OCCN(C)C)cc2c1CN(C(=O)c1c(O)cc(C(F)F)cc1OCc1ccccc1)CC2 [Example 4.73, (2-(Benzyloxy)-4-(difluoromethyl)-6-hydroxyphenyl)(6-(2-(dimethylamino)ethoxy)-8-(methylamino)-3,4-dihydroisoquinolin-2(1H)-yl)methanone]"
21,1000 to 10000,"CN(C)Cc1cc2c(cn1)CN(C(=O)c1c(O)cc(C#N)cc1OCc1ccccc1)C2 [Example 27, 3-(Benzyloxy)-4-(6-((dimethylamino)methyl)-2,3-dihydro-1H-pyrrolo[3,4-c]pyridine-2-carbonyl)-5-hydroxybenzonitrile]"
22,100 to 1000,"CN(C)Cc1ccc2c(n1)CN(C(=O)c1c(O)cc(C(F)F)cc1OCc1ccccc1)C2 [Example 4.52, (2-(Benzyloxy)-4-(difluoromethyl)-6-hydroxyphenyl)(2-((dimethylamino)methyl)-5,7-dihydro-6H-pyrrolo[3,4-b]pyridin-6-yl)methanone]"
23,100 to 1000,"O=C(c1c(O)cc(F)cc1OCc1ccccc1)N1Cc2cccc(N[C@H]3CCOC3)c2C1 [Example 5, (S)-(2-(Benzyloxy)-4-fluoro-6-hydroxyphenyl)(4-((tetrahydrofuran-3-yl)amino)isoindolin-2-yl)methanone]"
